Laboratory results: US7083969B2, “Serratia marcescens strain” (Korea Research Institute of Bioscience and Biotechnology, priority 1997, dated 2006)

Legend:
[1] = Weight ratio of the spleen to the body (toxicity); assay type: in vivo, mice
Procedure: (§1) A T cell-dependent immune response reaction was used to assess the influence of prodigiosin on T lymphocytes in vivo. Test animals were immunized with sheep red blood cells by peritoneal injection. 4 days after the immunization, the number of the antibody producing cells was counted. Prodigiosin was peritoneally injected everyday. Based on the number of the […] cells in the non-treated animals, the influence of prodigiosin on T lymphocytes in vivo was assessed as percentage. Also, the weight ratio of the spleen to the body was measured to assay the toxicity of prodigiosin to the animals. Cyclophosphamide was used as a positive control.

T lymphocytes [2] = assay: T cell-dependent immune response in vivo (antibody producing cells after sheep red blood cell immunization); parameters: species or system mice; settings: for Immune Response (%): 4 days after immunization
Description: (§2) Germ-free test animals, mice BDF1 and B6C3F1, obtained from Genetic Resources Center, Korean Research Institute of Bioscience and Biotechnology in the Korean Institute of Science and Technology, were used for the assay of the immunosuppressive activity of prodigiosin. […] At such concentrations as show no cytotoxic effects, prodigiosin cannot suppress the immune response of B lymphocytes. […] This selective immunosuppression for T lymphocytes is not ascribed to the selective cytotoxicity for T lymphocytes. The same immunosuppression results as in the ex vivo experiments were obtained in in vivo experiments. When T lymphocyte activity was measured by use of a graft versus host reaction and a T cell-dependent antibody producing reaction, the prodigiosin suppressed the immune response, but exerted no toxicity on animals. Therefore, the immunosuppressive activity of the prodigiosin is thought to be attributed to the selective suppression for T lymphocyte activity.
as §1

B lymphocytes = assay: Selective cytotoxicity: proportion of B lymphocytes after treatment; assay type: cell-based, mice; settings: for Proliferation (%) B cell: proportion of the cells
Description: as §2
(§3) Whether the selective immunosuppression of prodigiosin for T cells is attributed to the selective cytotoxicity for T cells or not was assayed by measuring the proportion of the cells. On the third day after treatment of the immune cells with prodigiosin, the number of the cells was counted. Because T lymphocytes consist of CD4 T cell (helper T cell) and CD8 T cell (cytotoxic T cell), the proportion of T and B lymphocytes was calculated in this Example.

[3] = Body weight of injected mice in graft versus host experiment (toxicity); assay type: in vivo
Procedure: (§4) A graft versus host reaction was utilized for the in vivo assay of prodigiosin's immunosuppression. The graft versus host reaction enables an assessment of the immune response of T lymphocytes. On the sixth day after transplantation of the T lymphocytes of BDF1 mice different in histocompatibility antigen, the lymphatic nodes were measured for weight, thereby assessing the immune response of T lymphocyte to the grafted heteroantigens. The prodigiosin was peritoneally injected at a dose of 30–100 mg per kg of body weight for five days while cyclophosphamide, as a positive control, was peritoneally injected at a dose of 100 mg/kg for five days. The body weights of the injected mice were measured to compare the toxicity of prodigiosin with that of cyclophosphamide. […] As for the body weight, it was not changed in the mice injected with prodigiosin at an effective concentration.

B lymphocyte [4] = assay: Lipopolysaccharide-induced B lymphocyte proliferation (DNA synthesis); assay type: cell-based, mice; settings: for Proliferation (%) B cell: three days
Description: as §2
Three standard substances which induce lymphocytes to proliferate were employed to measure the effect of the prodigiosin on proliferation of lymphocytes. 5 μg/ml of lipopolysaccharide were used to induce B lymphocyte to proliferate, 5 μg/ml of Concanavalin A for T lymphocyte and 5 μg/ml of Pokeweed mitogen for B and T lymphocytes, both. Prodigiosin was added, together with the proliferation-inducing substance. Three days after the addition, the proliferation effect was monitored by measuring the amount of DNA synthesized. In order to exclude the cytotoxicity of prodigiosin, it was used at a concentration of not more than 100 nM. In Table 2, the proliferation percentages mean the proliferated amounts of prodigiosin-treated lymphocytes relative to that of an non-treated group. As shown, the suppression percentage effected by prodigiosin in amounts of 30–100 nM reaches up to 96–98% for the T lymphocyte induced by concanavalin A while the proliferation of B lymphocyte induced by lipopolysaccharide and the proliferation of B/T lymphocytes induced by pokeweed mitogen are suppressed to the extent of 13–19% and 45–83%, respectively.

[5] = tested on: CD8 T cell (cytotoxic T cell); assay: Selective cytotoxicity: proportion of CD8 T cells after treatment; assay type: cell-based, mice; settings: proportion of the cells
Description: as §2, §3

T lymphocytes [6] = assay: Graft versus host reaction in vivo (lymphatic node weight); parameters: species or system BDF1 mice; settings: for Wt. (mg) of Lymphatic node: sixth day after transplantation
Description: as §2, §4

B lymphocyte [7] = assay: Antibody production of B lymphocytes stimulated with lipopolysaccharide; assay type: cell-based, mice; settings: for effect on antibody production / immune response of B lymphocytes (words): non-cytotoxic concentration range (3-100 nM)
Description: as §2
The influence of prodigiosin on the functions of lymphocytes was measured using three reaction systems. First, the ability of B lymphocyte to proliferate in response to lipopolysaccharide stimulus was assessed. For this, on the third day after stimulation with lipopolysaccharide, the antibody production of the B lymphocyte was measured. When B lymphocytes are stimulated with lipopolysaccharide, they can produce antibodies without the aid of T lymphocyte. Second, a mixed lymphocyte reaction was induced in order to assess the effect on T-cell response. The reaction needs no aids from the B lymphocyte. On the third day after two types of heteroimmune cells, which are different from each other in histocompatibility antigen, were mixed to stimulate the activity of T lymphocytes, the T-cell response-was assessed. Third, the T-cell dependent antibody producing reaction was utilized to assess the effect of prodigiosin on the simultaneous immune response of both of the B and T lymphocytes. This reaction requires the functions of B and T lymphocytes, simultaneously. On the fifth day after immunization of the lymphocytes with the red blood cells of sheep, their antibody production ability was assessed.
In Table 3, the values are relative to the immune response of the lymphocytes untreated with prodigiosin.

[8] = 3 nM, third day after treatment
[9] = 10 mg/kg peritoneally for five days
[10] = 30 mg/kg peritoneally for five days

CCCCCC1=C/C(=C/c2[nH]c(-c3ccc[nH]3)cc2OC)N=C1C [Prodigiosin, prodigiosin]
Wt. Ratio of spleen/body (%) ([1]; 10 mg/kg peritoneally everyday): 95% | Wt. Ratio of spleen/body (%) ([1]; 30 mg/kg peritoneally everyday): 84% | toxicity judged by weight ratio of the spleen to the body ([1]; at effective concentrations): no toxicity | Immune Response (%) (T lymphocytes [2]; 10 mg/kg peritoneally everyday, antibody producing cells vs non-treated animals): 32% | Immune Response (%) (T lymphocytes [2]; 30 mg/kg peritoneally everyday): 27% | number of the antibody-producing cells (T lymphocytes [2]; peritoneal injection everyday): significantly reduced | Proliferation (%) B cell (B lymphocytes; [8]): 47% | Proliferation (%) B cell (B lymphocytes; 10 nM, third day): 49% | Proliferation (%) B cell (B lymphocytes; 30 nM, third day): 50% | Proliferation (%) B cell (B lymphocytes; 100 nM, third day): 52% | selective cytotoxicity for B, CD4 T and CD8 T lymphocytes (B lymphocytes; B, CD4 T and CD8 T cell proportions, 3-100 nM, third day): no selective cytotoxicity | Body weight [3, 9]: 20 g | Body weight [3, 10]: 21 g | body weight change ([3]; at an effective concentration): not changed | Proliferation (%) B cell (B lymphocyte [4]; 3 nM, 5 μg/ml lipopolysaccharide, relative to non-treated group): 101% | Proliferation (%) B cell (B lymphocyte [4]; 10 nM, lipopolysaccharide): 105% | Proliferation (%) B cell (B lymphocyte [4]; 30 nM, lipopolysaccharide): 87% | Proliferation (%) B cell (B lymphocyte [4]; 100 nM, lipopolysaccharide): 81% | suppression of proliferation of B lymphocyte induced by lipopolysaccharide (B lymphocyte [4]; 30–100 nM): 13–19% | effect on proliferation of B lymphocytes (B lymphocyte [4]; non-cytotoxic concentrations): no influence | Proliferation (%) CD8 T cell [5, 8]: 13% | Proliferation (%) CD8 T cell ([5]; 10 nM, third day): 13% | Proliferation (%) CD8 T cell ([5]; 30 nM, third day): 12% | Proliferation (%) CD8 T cell ([5]; 100 nM, third day): 10% | Wt. (mg) of Lymphatic node (T lymphocytes [6]; [9]): 1.12 mg | Wt. (mg) of Lymphatic node (T lymphocytes [6]; [10]): 0.98 mg | immune response of T lymphocytes in graft versus host reaction (T lymphocytes [6]; peritoneal injection for five days): potentially suppress | Immune Response (%) B cell (B lymphocyte [7]; 3 nM, antibody production, third day after lipopolysaccharide, relative to untreated lymphocytes): 116% | Immune Response (%) B cell (B lymphocyte [7]; 10 nM, third day): 108% | Immune Response (%) B cell (B lymphocyte [7]; 30 nM, third day): 100% | Immune Response (%) B cell (B lymphocyte [7]; 100 nM, third day): 97% | effect on antibody production / immune response of B lymphocytes (words) (B lymphocyte [7]): no influence | effect on antibody production / immune response of B lymphocytes (words) (B lymphocyte [7]; listed as prodigiosin): not at all
